Format in all cases: cell-based
For assay [1], the target named is T1, p62 protein (Homo sapiens, UniProt Q13501). Nature of the assay: Oligomerization activity of p62 protein by immunoblotting. Further details: endogenous in cells. As to conditions: HEK293 cell line lysate treated with test compounds for 2 hours at room temperature. The source says:
In order to evaluate the oligomerization activity efficacy of p62 protein of the compounds (Examples 1-20), HEK293 cell line, which is human embryonic kidney-derived cell, was collected. As representative compounds of the present compounds, the compounds of Examples 1-20 (Example 1 (ATB10048), Example 2 (ATB10047), Example 3 (ATB10049), Example 4 (ATB10051), Example 5 (ATB10050), Example 6 (ATB10056), Example 7 (ATB10052), Example 8 (ATB10057), Example 9 (ATB10060), Example 10 (ATB10072), Example 11 (ATB10075), Example 12 (ATB10078), Example 13 (ATB10079), Example 14 (ATB10080), Example 15 (ATB10081), Example 16 (ATB10087), Example 17 (ATB10096), Example 18 (ATB10097), Example 19 (ATB10099) and Example 20 (ATB10100)) were selected, and in order to measure the activation and oligomerization of the p62 protein in cells according to the treatment with these selected representative compounds, each cell was dispensed into a 100 phi dish. The cells were collected after additional culture for 24 hours so that the cells were completely attached to the surface of the plate, and 100 ul of lysis buffer (20 mM Tris (pH 7.4), 150 mM NaCl, 1% Triton X-100, 2 mM NaF, 2 mM EDTA, 2 mM beta-glycerophosphate, 5 mM sodium orthovanadate, 1 mM PMSF, leupeptin, aproteinin) was injected to each sample, and the cells were lysed. Based on the measured total protein concentration, each sample was treated with the test compounds for 2 hours at room temperature, and then a sample buffer was added and reacted at 95° C. for 10 minutes. 25 ul was taken from the samples after the reaction was completed and dispensed into each well of an acrylamide gel, and immunoblotting was performed.
In general terms: In western blotting, separated proteins are transferred to a membrane and probed.

The target in assay [2] is T1, p62 protein. Nature of the assay: Activity of p62 protein and delivery of ubiquitinated substrate proteins to autophagy by immunofluorescence staining (p62, FK2) and confocal microscopy. Further details: endogenous in cells; host or cells: HeLa. The note with it: Hela cell line, 1 uM, 6 hours. How it is done:
Immunofluorescence staining was performed using p62 and FK2 as markers to determine the level of the activity of p62 protein of the compounds (Examples 1-20). In order to determine the level of p62 activity and autophagy activity by the novel p62 ligand and its isomers in the cultured cells, the Hela cell line derived from cervical cancer patients was treated with a novel p62 ligand compound (Example 1 (ATB10048), Example 2 (ATB10047), Example 3 (ATB10049), Example 5 (ATB10050), Example 4 (ATB10051), Example 7 (ATB10052), Example 6 (ATB10056), Example 8 (ATB10057), Example 9 (ATB10060), Example 10 (ATB10072), Example 11 (ATB10075), Example 12 (ATB10078), […], Example 14 (ATB10080), Example 15 (ATB10081), Example 16 (ATB10087)), Example 17 (ATB0096), Example 18 (ATB10097), Example 19 (ATB10099) and Example 20 (ATB10100)) and cultured, and then the level of puncta expression and location of FK2, which was a marker of the protein to be delivered to and degraded in the autophagy through the mediation of the intracellular ubiquitinated p62, and the puncta local co-existence with p62 were observed.
For immunofluorescence staining, a cover glass was placed on a 24-well plate, cells were dispensed and cultured for 24 hours, and then 1 uM of the novel p62 ligand according to the present invention was treated. After culturing for an additional 6 hours for the action of the compound, the medium was removed, and the cells were fixed using formaldehyde at room temperature. In order to prevent non-specific staining, the cells were reacted with a blocking solution at room temperature for 1 hour, and then the LC3 antibody diluted at a certain ratio was treated with a blocking solution and then reacted at room temperature for 1 hour. After the antibody-treated cells were washed 3 times with PBS, the goat-derived secondary antibody was diluted at a certain ratio using the blocking solution, and then reacted at room temperature for 30 minutes. After further washing with PBS three times, and DAPI staining was performed for intracellular nuclear staining. Then, the level of expression of p62 or FK2, the level of intracellular puncta formation, and the level of coexistence in the cells were observed by a confocal microscope.

Assay [3] has as its target T1, p62 protein. The experiment in a line: Activity of p62 protein and delivery to autophagosome by immunofluorescence staining (p62, LC3-GFP) and confocal microscopy. As to conditions: Hela-LC3-GFP cell line, 5 uM, 24 hours. Further details: endogenous in cells; host or cells: HeLa. On the procedure:
Immunofluorescence staining was performed using p62 and FK2 marker to determine the level of activity of p62 protein of the compounds (Examples 1-20). In order to determine the level of p62 activity and autophagy activity by the novel p62 ligand and its isomers in cultured cells, Hela-LC3-GFP cell line derived from cervical cancer patients was treated with the novel p62 ligand compounds (Example 2 (ATB10047), Example 3 (ATB10049), Example 4 (ATB10051), Example 6 (ATB10056), Example 9 (ATB10060), Example 12 (ATB10078), Example 16 (ATB10087) and Example (ATB10097)) and cultured. Then, the level of puncta expression and location of LC3-GFP, which is an essential autophagosome marker for macroautophagy, and the puncta local co-existence of p62 were observed.
For immunofluorescence staining, a cover glass was placed on a 24-well plate, cells were dispensed and cultured for 24 hours, and then treated with 5 uM of the novel p62 ligand according to the present invention. The cells were further cultured for an additional 24 hours for the action of the compound, the medium was removed, and the cells were fixed using formaldehyde at room temperature. In order to prevent non-specific staining, the cells were reacted with a blocking solution at room temperature for 1 hour, and then the LC3 antibody diluted at a certain ratio was treated with the blocking solution and then reacted at room temperature for 1 hour. After the antibody-treated cells were washed 3 times with PBS, the goat-derived secondary antibody was diluted at a certain ratio using the blocking solution, and then reacted at room temperature for 30 minutes. The cells were washed again with PBS three times and subjected to DAPI staining for intracellular nuclear staining, and then the level of expression of p62 or LC3, intracellular puncta formation, and intracellular coexistence level were observed by a confocal microscope.

Molecules are shown by their SMILES.

T1 sequence (Q13501 whole entry): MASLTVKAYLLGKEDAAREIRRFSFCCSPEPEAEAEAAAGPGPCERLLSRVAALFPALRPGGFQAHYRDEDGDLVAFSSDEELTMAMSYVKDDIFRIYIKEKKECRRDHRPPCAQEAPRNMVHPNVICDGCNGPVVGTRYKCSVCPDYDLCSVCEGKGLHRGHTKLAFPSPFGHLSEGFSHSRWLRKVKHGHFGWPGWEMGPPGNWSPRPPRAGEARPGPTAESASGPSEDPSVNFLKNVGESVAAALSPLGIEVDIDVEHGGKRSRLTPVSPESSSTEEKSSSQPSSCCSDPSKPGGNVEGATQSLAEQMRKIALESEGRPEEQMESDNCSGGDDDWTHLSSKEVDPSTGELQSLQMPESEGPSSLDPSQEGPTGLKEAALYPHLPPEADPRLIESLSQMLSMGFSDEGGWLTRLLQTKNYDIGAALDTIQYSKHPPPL

Consider `OCCNCc1cccc(OCc2ccccc2)n1` [Example 2, 2-(((6-(benzyloxy)pyridin-2-yl)methyl)amino)ethan-1-ol], for which the “p62 protein oligomerization activity (immunoblot, FIGS. 2a to 2d)” value (from here on “p62 protein oligomerization activity”) in assay [1] is “increasing the p62 protein oligomerization activity”. Further, the “delivery of ubiquitinated proteins marked with FK2 to autophagosome mediated by p62 (FIGS. 3a to 3d)” value (shortened to “delivery”) in assay [2] was “show the efficacy of delivering the proteins to be delivered to and degraded by autophagosome”. For the same compound, the “targeting of activated, oligomerized p62 protein to the autophagosome (FIG. 4)” value (from here on “targeting of activated”) in assay [3] was “show the efficacy of targeting them to the autophagosome”.

Turning to `OCCNCc1ncc(OCc2ccccc2)cn1` [Example 9, 2-(((5-(benzyloxy)pyrimidin-2-yl)methyl)amino)ethan-1-ol], in assay [1], the “p62 protein oligomerization activity” value is “increasing the p62 protein oligomerization activity”. In addition, in assay [2], the “delivery” value was “show the efficacy of delivering the proteins to be delivered to and degraded by autophagosome”. For the same compound, in assay [3], the “targeting of activated” value is reported as “show the efficacy of targeting them to the autophagosome”.

Consider `OCCNCc1ccc(CCc2ccccc2)o1` [Example 16, 2-(((5-phenethylfuran-2-yl)methyl)amino)ethan-1-ol], for which, in assay [1], the “p62 protein oligomerization activity” value is “increasing the p62 protein oligomerization activity”. The “delivery” value in assay [2] is “show the efficacy of delivering the proteins to be delivered to and degraded by autophagosome”. The “targeting of activated” value in assay [3] is recorded as “show the efficacy of targeting them to the autophagosome”.

For `O=C(CO)NCc1cc(OCc2ccccc2)ccn1` [Example 4, N-((4-(benzyloxy)pyridin-2-yl)methyl)-2-hydroxyacetamide], the “p62 protein oligomerization activity” value in assay [1] is recorded as “increasing the p62 protein oligomerization activity”. Moreover, in assay [2], the “delivery” value is “show the efficacy of delivering the proteins to be delivered to and degraded by autophagosome”. Further, in assay [3], the “targeting of activated” value is on record as “show the efficacy of targeting them to the autophagosome”.

`OCCNCc1ccc(OCc2ccccc2)o1` [Example 18, 2-(((5-(benzyloxy)-furan-2-yl)methyl)amino)ethan-1-ol]: in assay [1], the “p62 protein oligomerization activity” value was “increasing the p62 protein oligomerization activity”. Further, the “delivery” value in assay [2] is “show the efficacy of delivering the proteins to be delivered to and degraded by autophagosome”. Moreover, the “targeting of activated” value in assay [3] is “show the efficacy of targeting them to the autophagosome”.

As to `COC(=O)CCNC[C@@H](O)COc1cc(OCc2ccccc2)ccn1` [Example 12, methyl (R)-3-((3-((4-(benzyloxy)pyridin-2-yl)oxy)-2-hydroxypropyl)amino)propanoate], the “p62 protein oligomerization activity” value in assay [1] is on record as “increasing the p62 protein oligomerization activity”. For the same compound, the “delivery” value in assay [2] was “show the efficacy of delivering the proteins to be delivered to and degraded by autophagosome”. Besides, the “targeting of activated” value in assay [3] was “show the efficacy of targeting them to the autophagosome”.

As for `O=C(CO)NCc1ccc(OCc2ccccc2)cn1` [Example 3, N-((5-(benzyloxy)pyridin-2-yl)methyl)-2-hydroxyacetamide], the “p62 protein oligomerization activity” value in assay [1] was “increasing the p62 protein oligomerization activity”. Also, the “delivery” value in assay [2] is “show the efficacy of delivering the proteins to be delivered to and degraded by autophagosome”. Besides, the “targeting of activated” value in assay [3] was “show the efficacy of targeting them to the autophagosome”.

For the origin of these results see patent US20220402873A1, “NOVEL P62 LIGAND COMPOUND, AND COMPOSITION CONTAINING SAME FOR PREVENTING, AMELIORATING, OR TREATING PROTEINOPATHIES” (AUTOTAC INC., priority 2019, published 2022).
